From patent US12263156B2, “Use of small molecule inhibitors of the BfrB:Bfd interaction in biofilms” (priority 2020, dated 2025)
Values joined by “and” are separate entries in the source; they are usually repeats but may differ in a detail not shown here. Equal values may be shown once.

Assays:
P. aeruginosa PAO1 = assay: Half maximal inhibitory concentration (IC50) of planktonic growth, CFU/mL enumeration; type: cell-based, Pseudomonas aeruginosa; conditions: for IC50: Pseudomonas aeruginosa, PAO1
Experimental: Chemicals were purchased from Fisher Scientific (Waltham, MA) unless otherwise stated. P. aeruginosa PAO1 was obtained from the University of Washington Genome center.^80 The PAO1 strain expressing enhanced yellow fluorescent protein (EYFP) was prepared as described in Soldano, A.; Yao, H.; Chandler, J. R.; Rivera, M. (2020) Inhibiting Iron Mobilization from Bacterioferritin in Pseudomonas aeruginosa Impairs Biofilm Formation Irrespective of Environmental Iron Availability. ACS Infect. Dis. 6, 447-458. 10.1021/acsinfecdis.9b00398.^26 Clinical isolates of P. aeruginosa were purchased from JMI Laboratories (North Liberty, IA, USA). […] Starter cultures of P. aeruginosa PAO1 in 5 mL LB media were grown for 13 hours in 50 mL conical tubes at 37° C. and 220 rpm. For biofilm experiments, a EYFP-expressing P. aeruginosa strain was routinely grown in Pseudomonas Isolation (PI) media (20 g L^−1 peptone, 0.3 g L^−1 MgCl2·6H O, 10 g L^−1 K2SO4, 25 mg L^−1 irgasan, and 20 mL L^−1 glycerol, pH 7.0). Starter cultures were grown from a single colony at 37° C. and shaking at 220 rpm for 14 hours in 5 mL PI media supplemented with 10 μM Fe. Pellicle biofilms were cultured for 48 hours at 30° C. in PI media supplemented with 20 μM Fe. Surface-attached biofilms were cultured in AB minimal media^81 supplemented with trace metals [0.15 μM (NH4)2MoO4, 3 μM CuSO4, 2 μM Co(NO3)2, 9.4 μM Na2B4O7, and 7.6 μM ZnSO4], 3 mM glucose and 15 μM Fe. Iron supplementation was carried out by addition of a small volume of filter-sterilized 10 mM (NH4)2Fe(SO4)2 (pH˜2.0) solution. […]; IC50 values (Table 1 below) were determined as reported previously^25 with small modifications. In brief: precultures of P. aeruginosa PAO1 (5 mL) were grown in LB media for 13 hours at 37° C. and 220 rpm in 50 mL conical tubes (VWR International, PA). The cells were centrifuged for 5 min at 4,000 rpm and 4° C., washed two times and then diluted in buffer (100 mM KH2PO4 and 15 mM (NH4)2SO4 to an optical density at 600 nm (OD600) of 0.1. A small volume of compound stock solution (10 mM) was transferred to a microcentrifuge tube, initially diluted with DMSO to 20 μL, and then diluted to 1 mL with preculture cell suspension in defined media with OD600=0.0001, so the final DMSO concentration is 2%. The resultant cell suspension (200 μL) was transferred to a clear-bottom polystyrene 96-well plate (VWR International, PA) covered with a lid and incubated at 35° C. and 205 cpm for 24 h in a Synergy H1 microplate reader (Biotek Instruments Inc., Winooski, VT). The cell cultures were serially diluted and then plated on PI Agar (PIA; BD Biosciences, San Jose, CA) plates for enumeration of viable cells (CFU/mL). The % growth was calculated from the ratio CFU/mL(treated)/CFU/mL(untreated control). To calculate the IC50 values, the % growth was plotted as a function of compound concentration, expressed as log[compound] (μM), and fitted to the 4-parameter logistic model describing the sigmoid-shaped response pattern (equation 1),^83 where b is the slope factor, max is the upper asymptote (plateau), and min is the lower asymptote. Values are the average and standard deviation from three independent experiments.

BfrB (apo-BfrB) = BfrB (apo-BfrB) (Pseudomonas aeruginosa (strain ATCC 15692 / DSM 22644 / CIP 104116 / JCM 14847 / LMG 12228 / 1C / PRS 101 / PAO1), UniProt Q9HY79); assay: Fluorescence polarization measurement of dissociation constant (Kd); type: binding; conditions: for Kd: 100 mM potassium phosphate buffer pH 7.6, 1 mM TCEP, 0.5% DMSO, average ± SD
Experimental: Values were obtained in 100 mM potassium phosphate buffer (pH 7.6) containing 1 mM TCEP and 0.5% DMSO. The initial concentrations of KM-5-25 and KM-5-66 were 5 μM. The Kd values are the average and standard deviation from three independent measurements. […] The IC50 values are the average and the standard derivations from three independent experiments.
Prior to testing the effect that the 4-substituted isoindoline-1,3-dione derivatives might exert on P. aeruginosa cells, the strength of their interaction with BfrB was evaluated in vitro with a fluorescence polarization assay developed based on the intrinsic fluorescence of the isoindoline-1,3-dione moiety.

[1] = test system: EYFP-expressing P. aeruginosa PAO1 pellicle biofilms; assay: Determination of viable cells (CFU/mL) in pellicle biofilms; conditions: for % cell survival, CFU/mL(after treatment)/CFU/mL(pre-treatment): 2-day old pellicles, 24 h
Experimental: (§1) Pellicle biofilms of EYFP-expressing P. aeruginosa PAO1 or clinical isolates were grown in PI media supplemented with 20 μM Fe. Starter cultures were diluted to OD600=0.001 in 4 mL media, placed in 35×10 mm petri dishes and incubated statically at 30° C. for 48 hours. The pellicles were transferred onto circular (1.5 cm diameter) glass coverslips by gently allowing the surface of a coverslip to contact a pellicle. The pellicle-adhered coverslip was washed in PBS and then deposited on top of 1.5 mL of AB challenge media contained in a well of a 12-well microplate, with the pellicle exposed to the media. […] The coverslip-adhered pellicles were exposed to challenge media at 30° C. for 24 hours, changing the challenge media every 12 hours by transferring the pellicle-adhered coverslip to a new plate containing pre-warmed challenge media.
Pellicle biofilms were grown as described above. Planktonic and loosely attached cells were washed (3 times) by immersing the coverslip-adhered pellicles (biofilm facing up) into a well of a 12-well plate containing 3 mL of PBS, and incubating (5 min) with gentle rocking. To remove the pellicle from the coverslip, break the extracellular matrix and release cells from the biofilm, the coverslip-adhered pellicle was placed in a 50 mL conical tube containing a 2 mL suspension of zirconia beads (0.1 mm diameter, BioSpec Products), 10 mL PBS, 0.2 μg/mL alginate lyase and 0.2 μg/mL DNAse. The resultant mixture was incubated at room temperature for 3 min, followed by vigorous vortexing for 4 min. After sedimentation of the zirconia beads, a 100 μL aliquot was used for serial dilution and plating on PIA plates for subsequent enumeration of viable cells (CFU/mL).
To assess the efficacy of antibiotics and compounds with an approach complementary to imaging with CLSM, dispersing biofilm cells for subsequent enumeration of viable cells (CFU/mL) was resorted to. […] The biofilms were then harvested, and the cells dispersed into sterile PBS by vortexing in the presence of zirconia beads, prior to plating the cell suspensions for subsequent enumeration of CFU/mL. […] A characteristic of cells in the VBNC state is their inability to develop into colonies on routine culture media, even though the cells remain viable for long periods of time.^58-59 Evidence that bacterial cells can enter the VBNC has been obtained by several distinct methods,^59 one of which is the utilization of bacteria engineered to constitutively express bioluminescent proteins, and using the bioluminescence as a reporter of metabolic activity.

Aqueous solubility = type: physicochemical; conditions: aqueous solution
P. aeruginosa = conditions: reported MIC; cited from earlier work
[2] = test system: EYFP-expressing P. aeruginosa PAO1 biofilms; assay: Flow cell biofilm assay (CLSM imaging, COMSTAT biomass); type: cell-based, Pseudomonas aeruginosa; conditions: 3-day old flow cell biofilms, 24 h treatment at 25× the MIC
Experimental: ACS Infect. Dis. […] The experimental shear stress was 0.14-dyn/cm^2 (shear rate=14 s^−1, pressure=7.1 mbar, flow rate=0.4 mL/min) and the switch time was set to 540 s. […] During biofilm growth and challenge with antibacterial, the culture medium in the reservoirs was removed every 12 hours and replaced with fresh pre-warmed medium. […] The biofilms were imaged with the aid of a Leica TCS SP8 confocal microscope (Leica Microsystems, Germany) using a HC PL apo CS2 63×/1.4 oil objective. […] Image stacks were acquired with a z-step size of 0.3 μm at randomly chosen positions. The Leica Application Suite X (LAS-X) software was used for image stack processing.^54 Quantitative analysis of biofilm biomass was performed using the COMSTAT computer program^54 and the Otsu method of automatic thresholding.^85
The treated biofilms were counterstained with the cell impermeable fluorescent nucleic acid dye Sytox Red and then imaged with the aid of confocal laser scanning microscopy (CLSM).

[3] = test system: EYFP-expressing P. aeruginosa PAO1 pellicle biofilms; assay: Pellicle biofilm assay (CLSM imaging, COMSTAT biomass); type: cell-based, Pseudomonas aeruginosa; conditions: 24 h; for tolerance or susceptibility of pellicle biofilms (CLSM): 2-day old pellicles, ciprofloxacin, tobramycin 25× and 50× the MIC, colistin above 10× the MIC
Experimental: as §1
Excess fluorescent dye was washed with PBS, the coverslip was mounted on a glass slide using 5 μL of SlowFade (Invitrogen, Carlsbad, CA) and the edges sealed with fingernail polish. CLSM image stacks (z-step size of 0.3 μm) were acquired with the aid of a Leica TCS SP8 microscope, as described above. Quantitative analysis was performed by determination of pellicle biomass using COMSTAT^54 and the Otsu method of automatic thresholding.^85
To expand the observations made with flow cell biofilms into a second biofilm model, the susceptibility of biofilms grown at the air-liquid interface (pellicles) was also studied.^56-57 Pellicle biofilms (henceforth pellicles) are an attractive alternative platform to study biofilms because pellicles are amenable to imaging by CLSM and to harvesting, which can be desirable for additional biofilm analysis.^26 To determine the susceptibility of pellicles to antibiotics or inhibitors of the BfrB-Bfd complex, 2-day old pellicles of EYFP-expressing P. aeruginosa cells were cultured in PI media supplemented with 20 μM Fe. The pellicles were transferred onto glass coverslips by allowing the surface of the coverslip to contact a pellicle.

[4] = planktonic growth, 24 h, 35° C, defined media, 2% DMSO, average ± SD of three experiments

## Nc1cccc2c1C(=O)NC2=O [Analog 8]
P. aeruginosa PAO1; [4]
  IC50 (μM): Not active

## O=C1NC(=O)c2c(NCc3ccccc3O)cccc21 [Analog 11]
P. aeruginosa PAO1; [4]
  IC50: 258 ± 23 µM

## O=C1NC(=O)c2c(NCc3cccc(O)c3)cccc21 [Analog 12]
P. aeruginosa PAO1; [4]
  IC50: > 120 µM
BfrB (apo-BfrB)
  Kd: 21 ± 3 µM

## O=C1NC(=O)c2c(NCCCc3cccc(O)c3)cccc21 [Analog 16]
P. aeruginosa PAO1; [4]
  IC50: 121 ± 4 µM
BfrB (apo-BfrB)
  Kd: 1.5 ± 0.25 µM
[1]; pellicles treated 24 h with 50 μM of each analog
  relative compound activity (rank order): KM-5-66>KM-5-25>16>11

## O=C1NC(=O)c2c(NCCCc3cc(F)ccc3O)cccc21 [JAG-5-6]
P. aeruginosa PAO1; [4]
  IC50: 54 ± 9 µM
P. aeruginosa PAO1; relative to KM-5-28
  fold decrease in IC50 relative to KM-5-28: ~2 fold
BfrB (apo-BfrB)
  Kd: 0.43 ± 0.07 µM
BfrB (apo-BfrB); relative to KM-5-28
  fold lowered Kd relative to KM-5-28: ~3 fold

## O=C1NC(=O)c2c(NCc3cc(F)ccc3O)cccc21 [JAG-5-7, 4-((5-Fluoro-2-hydroxybenzyl)amino)isoindoline-1,3-dione]
P. aeruginosa PAO1; [4]
  IC50: 128 ± 26 µM
BfrB (apo-BfrB)
  Kd: 7 ± 2 µM

## O=C1NC(=O)c2c(NCCCc3ccccc3O)cccc21 [KM-5-28]
P. aeruginosa PAO1; [4]
  IC50: 96 ± 1 µM
BfrB (apo-BfrB)
  Kd: 1.4 ± 0.2 µM

## O=C1NC(=O)c2c(NCc3c(O)cccc3Cl)cccc21 [KM-5-29, 4-((6-Chloro-2-hydroxybenzyl)amino)isoindoline-1,3-dione]
BfrB (apo-BfrB)
  Kd: 6 ± 0.5 µM
Aqueous solubility
  aqueous solubility (in words): poorly soluble in aqueous solution

## O=C1NC(=O)c2c(NCc3cccc(Cl)c3O)cccc21 [KM-5-30, 4-((3-Chloro-2-hydroxybenzyl)amino)isoindoline-1,3-dione]
P. aeruginosa PAO1; [4]
  IC50: 156 ± 30 µM
P. aeruginosa PAO1; relative to KM-5-25
  fold larger IC50 relative to KM-5-25: ~2.5 fold
BfrB (apo-BfrB)
  Kd: 6 ± 1 µM

## O=C1NC(=O)c2c(NCc3cc(O)cc(Cl)c3)cccc21 [KM-5-50, 4-((5-Chloro-3-hydroxybenzyl)amino)isoindoline-1,3-dione]
P. aeruginosa PAO1; [4]
  IC50: 82 ± 16 µM
BfrB (apo-BfrB)
  Kd: 11 ± 2 µM

## O=C1NC(=O)c2c(NCCCc3cc(Cl)ccc3O)cccc21 [KM-5-54]
BfrB (apo-BfrB)
  Kd: 0.22 ± 0.04 µM
BfrB (apo-BfrB); relative to JAG-5-6
  fold increase of binding affinity relative to JAG-5-6: 2 fold
Aqueous solubility
  aqueous solubility (in words): poor water solubility

## O=C1NC(=O)c2c(NCCCc3cc(O)cc(O)c3)cccc21 [KM-5-57]
P. aeruginosa PAO1; [4]
  IC50: > 200 µM
BfrB (apo-BfrB)
  Kd: 2.5 ± 0.4 µM
BfrB (apo-BfrB); relative to 16
  fold increase of Kd relative to 16: ~1.7 fold

## O=C(O)c1cn(C2CC2)c2cc(N3CCNCC3)c(F)cc2c1=O [ciprofloxacin]
P. aeruginosa
  MIC: 0.25 μg/mL and 0.75 μM

## NC[C@H]1O[C@H](O[C@H]2[C@H](O)[C@@H](O[C@H]3O[C@H](CO)[C@@H](O)[C@H](N)[C@H]3O)[C@H](N)C[C@@H]2N)[C@H](N)C[C@@H]1O [tobramycin, reference compound]
[2]
  % survival (biomass remaining viable, COMSTAT): ~70%
[1]; antibiotic at 25× the MIC
  % cell survival, CFU/mL(after treatment)/CFU/mL(pre-treatment): ~70%
[1]; antibiotic at 50× the MIC
  % cell survival, CFU/mL(after treatment)/CFU/mL(pre-treatment): ~70%
P. aeruginosa
  MIC: 0.5 μg/mL and 1.07 μM
[3]
  tolerance or susceptibility of pellicle biofilms (CLSM): tolerant

## colistin
[2]
  % survival (biomass remaining viable, COMSTAT): ~20%
[1]; antibiotic at 25× the MIC
  % cell survival, CFU/mL(after treatment)/CFU/mL(pre-treatment): ~10%
[1]; antibiotic at 50× the MIC
  % cell survival, CFU/mL(after treatment)/CFU/mL(pre-treatment): ~1%
P. aeruginosa
  MIC: 1 μg/mL and 0.79 μM
[3]
  tolerance or susceptibility of pellicle biofilms (CLSM): susceptible
[3]; colistin at 50× the MIC
  fluorescence signal from viable cells expressing EYFP: undetectable
